PubChem BioAssay (NCI)
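A five-concentration, 48-hour dose response in 96-well plates underlies each endpoint, interpolated linearly between surrounding concentrations. Abbreviation: GI50, concentration required for 50% inhibition of growth. TGI: total growth inhibition.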

How the values were obtained:
Test in all cases: NCI anticancer screen, dose series, 48 h
[1] = system: A549 NSCLC
[2] = system: BT-549 breast
[3] = system: EKVX NSCLC
[4] = system: HCT-15 colon
[5] = system: HOP-92 NSCLC
[6] = system: HT29 colon
[7] = system: MDA-MB-435
[8] = system: NCI-H226 lung
[9] = system: NCI-H460 lung
[10] = system: SK-MEL-5 melanoma

SMILES	GI50 [1]	TGI [1]	GI50 [2]	TGI [2]	GI50 [3]	TGI [3]	GI50 [4]	TGI [4]	GI50 [5]	TGI [5]	GI50 [6]	TGI [6]	GI50 [7]	TGI [7]	GI50 [8]	TGI [8]	GI50 [9]	TGI [9]	GI50 [10]	TGI [10]
Clc1ccc(Nc2ncnc3ccccc23)cc1	47.6 µM	> 100 µM	72.8 µM	> 100 µM	10.1 µM	> 100 µM	25.2 µM	> 100 µM	13.8 µM	73.2 µM	55.3 µM	> 100 µM	42.2 µM	> 100 µM	57.2 µM	> 100 µM	43.7 µM	> 100 µM	21.6 µM	56.1 µM
CN1CCN(C(=O)OCc2nc3c(N4CCOCC4)nc(-c4ccccc4)nc3n2C)CC1	1.68 µM	4.13 µM	1 µM	2.25 µM	1.39 µM	2.94 µM	0.317 µM	1.26 µM	0.765 µM	2.24 µM	0.512 µM	2.24 µM	1.06 µM	2.39 µM	1.61 µM	3.78 µM	1.48 µM	3.06 µM	1.5 µM	2.85 µM
CSc1nc(SC)c2c(C)cn(Cc3ccccc3)c2n1		> 100 µM		> 100 µM		> 100 µM		> 100 µM		> 100 µM		> 100 µM		> 100 µM		> 100 µM		> 100 µM		> 100 µM
CCOC(=O)c1c2c(n(Cc3ccccc3)c1C)-c1nc[nH]c1C(=O)C2=O	11.8 µM	25.9 µM	17 µM	31.1 µM	17.8 µM	32 µM	14.8 µM	29.1 µM	0.0891 µM	18.9 µM	28.9 µM	76.4 µM	16.9 µM	31.3 µM	20.9 µM	47.2 µM	11.2 µM	23.2 µM	15.9 µM	29.8 µM
Cc1ccc([I+]c2ccc(C)cc2)cc1	4.22 µM	> 100 µM	5.28 µM	75.7 µM	0.484 µM	42.5 µM	59.5 µM	> 100 µM	4.69 µM	> 100 µM	0.887 µM	27.4 µM	5.28 µM	77.3 µM	17.8 µM	> 100 µM	3.48 µM	30.4 µM	0.79 µM	3.89 µM
CC(C)c1ccc2c(c1)CCC1C(C)(CN)CCCC21C (stereo not given)		3.37 µM		3.43 µM		3.4 µM		3.17 µM		2.97 µM		2.39 µM		2.89 µM		3.4 µM		2.6 µM		3.17 µM
O=C(NC(=S)Nc1ccc(-c2nc3ccccc3[nH]2)cc1)c1ccc2ccccc2c1	3.79 µM	> 100 µM	2.2 µM	6.73 µM	22.9 µM	> 100 µM	3.15 µM	50.1 µM	2.17 µM	7.02 µM	4.61 µM	> 100 µM	4.27 µM	> 100 µM	4.36 µM	25.4 µM	4.29 µM	> 100 µM	3.63 µM	> 100 µM
